#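 Protocol summary: plate cells (96-well), add compound at 5 concentrations, incubate 48 h, interpolate endpoints linearly. At the TGI there is no net growth.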
# What was measured:
# Experiment in all cases: inhibition of tumour cell growth, NCI panel, 48 h
# 786-0 renal = test system: 786-0 renal
# A498 renal = test system: A498 renal
# A549 NSCLC = test system: A549 NSCLC
# BT-549 breast = test system: BT-549 breast
# CAKI-1 renal = test system: CAKI-1 renal
# CCRF-CEM leukemia = test system: CCRF-CEM leukemia
# COLO 205 colon = test system: COLO 205 colon
# DU-145 prostate = test system: DU-145 prostate
# EKVX NSCLC = test system: EKVX NSCLC
# HCC-2998 colon = test system: HCC-2998 colon
# HCT-116 colon = test system: HCT-116 colon
# HCT-15 colon = test system: HCT-15 colon
# HL-60(TB) leukemia = test system: HL-60(TB) leukemia
# HOP-62 NSCLC = test system: HOP-62 NSCLC
# HOP-92 NSCLC = test system: HOP-92 NSCLC
# HS 578T breast = test system: HS 578T breast
# HT29 colon = test system: HT29 colon
# IGROV1 ovarian = test system: IGROV1 ovarian
# K-562 leukemia = test system: K-562 leukemia
# KM12 colon = test system: KM12 colon
# LOX IMVI melanoma = test system: LOX IMVI melanoma
# M14 melanoma = test system: M14 melanoma
# MALME-3M melanoma = test system: MALME-3M melanoma
# MCF7 breast = test system: MCF7 breast
# MDA-MB-231 breast = test system: MDA-MB-231 breast
# MDA-MB-435 = test system: MDA-MB-435
# MDA-N = test system: MDA-N
# MOLT-4 leukemia = test system: MOLT-4 leukemia
# NCI-H226 lung = test system: NCI-H226 lung
# NCI-H23 lung = test system: NCI-H23 lung
# NCI-H460 lung = test system: NCI-H460 lung
# NCI-H522 lung = test system: NCI-H522 lung
# NCI/ADR-RES ovarian = test system: NCI/ADR-RES ovarian
# OVCAR-3 ovarian = test system: OVCAR-3 ovarian
# OVCAR-4 ovarian = test system: OVCAR-4 ovarian
# OVCAR-5 ovarian = test system: OVCAR-5 ovarian
# OVCAR-8 ovarian = test system: OVCAR-8 ovarian
# PC-3 prostate = test system: PC-3 prostate
# RPMI-8226 leukemia = test system: RPMI-8226 leukemia
# SF-268 CNS = test system: SF-268 CNS
# SF-295 CNS = test system: SF-295 CNS
# SF-539 CNS = test system: SF-539 CNS
# SK-MEL-2 melanoma = test system: SK-MEL-2 melanoma
# SK-MEL-28 melanoma = test system: SK-MEL-28 melanoma
# SK-MEL-5 melanoma = test system: SK-MEL-5 melanoma
# SK-OV-3 ovarian = test system: SK-OV-3 ovarian
# SN12C renal = test system: SN12C renal
# SNB-19 CNS = test system: SNB-19 CNS
# SNB-75 CNS = test system: SNB-75 CNS
# SR leukemia = test system: SR leukemia
# T-47D breast = test system: T-47D breast
# TK-10 renal = test system: TK-10 renal
# U251 CNS = test system: U251 CNS
# UACC-257 melanoma = test system: UACC-257 melanoma
# UACC-62 melanoma = test system: UACC-62 melanoma
# UO-31 renal = test system: UO-31 renal
# ACHN renal = test system: ACHN renal
# RXF 393 renal = test system: RXF 393 renal
# SW-620 colon = test system: SW-620 colon
compound,measurement,setting,value
O=C1CSC(/C=C/c2ccccc2)N1c1ccc(-n2c(-c3ccccc3)nc3ccccc3c2=O)cc1 (stereo not drawn),TGI,786-0 renal,> 100 µM
same,TGI,A498 renal,> 100 µM
same,TGI,A549 NSCLC,> 100 µM
same,TGI,BT-549 breast,> 100 µM
same,TGI,CAKI-1 renal,> 100 µM
same,TGI,CCRF-CEM leukemia,> 100 µM
same,TGI,COLO 205 colon,> 100 µM
same,TGI,DU-145 prostate,> 100 µM
same,TGI,EKVX NSCLC,> 100 µM
same,TGI,HCC-2998 colon,> 100 µM
same,TGI,HCT-116 colon,> 100 µM
same,TGI,HCT-15 colon,> 100 µM
same,TGI,HL-60(TB) leukemia,> 100 µM
same,TGI,HOP-62 NSCLC,> 100 µM
same,TGI,HOP-92 NSCLC,> 100 µM
same,TGI,HS 578T breast,> 100 µM
same,TGI,HT29 colon,> 100 µM
same,TGI,IGROV1 ovarian,> 100 µM
same,TGI,K-562 leukemia,> 100 µM
same,TGI,KM12 colon,> 100 µM
same,TGI,LOX IMVI melanoma,> 100 µM
same,TGI,M14 melanoma,> 100 µM
same,TGI,MALME-3M melanoma,> 100 µM
same,TGI,MCF7 breast,> 100 µM
same,TGI,MDA-MB-231 breast,> 100 µM
same,TGI,MDA-MB-435,> 100 µM
same,TGI,MDA-N,> 100 µM
same,TGI,MOLT-4 leukemia,> 100 µM
same,TGI,NCI-H226 lung,> 100 µM
same,TGI,NCI-H23 lung,> 100 µM
same,TGI,NCI-H460 lung,> 100 µM
same,TGI,NCI-H522 lung,> 100 µM
same,TGI,NCI/ADR-RES ovarian,> 100 µM
same,TGI,OVCAR-3 ovarian,> 100 µM
same,TGI,OVCAR-4 ovarian,86.2 µM
same,TGI,OVCAR-5 ovarian,> 100 µM
same,TGI,OVCAR-8 ovarian,> 100 µM
same,TGI,PC-3 prostate,> 100 µM
same,TGI,RPMI-8226 leukemia,> 100 µM
same,TGI,SF-268 CNS,> 100 µM
same,TGI,SF-295 CNS,> 100 µM
same,TGI,SF-539 CNS,> 100 µM
same,TGI,SK-MEL-2 melanoma,> 100 µM
same,TGI,SK-MEL-28 melanoma,> 100 µM
same,TGI,SK-MEL-5 melanoma,> 100 µM
same,TGI,SK-OV-3 ovarian,69 µM
same,TGI,SN12C renal,> 100 µM
same,TGI,SNB-19 CNS,> 100 µM
same,TGI,SNB-75 CNS,90 µM
same,TGI,SR leukemia,> 100 µM
same,TGI,T-47D breast,> 100 µM
same,TGI,TK-10 renal,> 100 µM
same,TGI,U251 CNS,> 100 µM
same,TGI,UACC-257 melanoma,> 100 µM
same,TGI,UACC-62 melanoma,> 100 µM
same,TGI,UO-31 renal,> 100 µM
CN(C)/C=N/S(=O)(=O)c1nn2c(C=O)c(-c3ccc([N+](=O)[O-])cc3)nc2s1,TGI,786-0 renal,9.03 µM
same,TGI,A498 renal,> 100 µM
same,TGI,A549 NSCLC,> 100 µM
same,TGI,ACHN renal,10.5 µM
same,TGI,BT-549 breast,25.5 µM
same,TGI,CAKI-1 renal,7.13 µM
same,TGI,CCRF-CEM leukemia,19.2 µM
same,TGI,COLO 205 colon,> 34.3 µM
same,TGI,DU-145 prostate,> 41.6 µM
same,TGI,EKVX NSCLC,58.7 µM
same,TGI,HCC-2998 colon,> 43.4 µM
same,TGI,HCT-116 colon,6.51 µM
same,TGI,HCT-15 colon,> 49.6 µM
same,TGI,HL-60(TB) leukemia,3.85 µM
same,TGI,HOP-62 NSCLC,> 81.9 µM
same,TGI,HOP-92 NSCLC,53.5 µM
same,TGI,HS 578T breast,> 71.8 µM
same,TGI,HT29 colon,4.38 µM
same,TGI,IGROV1 ovarian,17.6 µM
same,TGI,K-562 leukemia,> 27.3 µM
same,TGI,KM12 colon,42.3 µM
same,TGI,LOX IMVI melanoma,27 µM
same,TGI,M14 melanoma,> 32.4 µM
same,TGI,MALME-3M melanoma,8.72 µM
same,TGI,MCF7 breast,> 42 µM
same,TGI,MDA-MB-231 breast,> 81.5 µM
same,TGI,MDA-MB-435,50.4 µM
same,TGI,MDA-N,17 µM
same,TGI,MOLT-4 leukemia,> 21.8 µM
same,TGI,NCI-H226 lung,> 95.1 µM
same,TGI,NCI-H23 lung,49.7 µM
same,TGI,NCI-H460 lung,> 85.9 µM
same,TGI,NCI-H522 lung,3.86 µM
same,TGI,NCI/ADR-RES ovarian,> 100 µM
same,TGI,OVCAR-3 ovarian,18 µM
same,TGI,OVCAR-4 ovarian,39.7 µM
same,TGI,OVCAR-5 ovarian,> 79.6 µM
same,TGI,OVCAR-8 ovarian,47.4 µM
same,TGI,PC-3 prostate,> 51.9 µM
same,TGI,RPMI-8226 leukemia,> 60.9 µM
same,TGI,RXF 393 renal,> 67 µM
same,TGI,SF-268 CNS,> 72.9 µM
same,TGI,SF-295 CNS,> 100 µM
same,TGI,SF-539 CNS,71.4 µM
same,TGI,SK-MEL-2 melanoma,51.3 µM
same,TGI,SK-MEL-28 melanoma,18.3 µM
same,TGI,SK-MEL-5 melanoma,17.4 µM
same,TGI,SK-OV-3 ovarian,> 100 µM
same,TGI,SN12C renal,22.6 µM
same,TGI,SNB-19 CNS,> 100 µM
same,TGI,SNB-75 CNS,> 86.9 µM
same,TGI,SR leukemia,> 43.3 µM
same,TGI,SW-620 colon,> 34 µM
same,TGI,T-47D breast,> 45.4 µM
same,TGI,TK-10 renal,21.6 µM
same,TGI,U251 CNS,41.6 µM
same,TGI,UACC-257 melanoma,40.5 µM
same,TGI,UACC-62 melanoma,23 µM
same,TGI,UO-31 renal,13.2 µM
COC(=O)c1ccc(NCc2cc(O)ccc2O)cc1O,TGI,786-0 renal,21.5 µM
same,TGI,A498 renal,58.8 µM
same,TGI,A549 NSCLC,30.4 µM
same,TGI,ACHN renal,22.2 µM
same,TGI,BT-549 breast,14.2 µM
same,TGI,CAKI-1 renal,17.7 µM
same,TGI,COLO 205 colon,33.7 µM
same,TGI,DU-145 prostate,25.3 µM
same,TGI,EKVX NSCLC,27 µM
same,TGI,HCC-2998 colon,26.7 µM
same,TGI,HCT-116 colon,36.3 µM
same,TGI,HCT-15 colon,26.5 µM
same,TGI,HL-60(TB) leukemia,4.21 µM
same,TGI,HOP-62 NSCLC,24.4 µM
same,TGI,HOP-92 NSCLC,29 µM
same,TGI,HS 578T breast,> 68.1 µM
same,TGI,HT29 colon,34.4 µM
same,TGI,IGROV1 ovarian,27.8 µM
same,TGI,K-562 leukemia,> 79.3 µM
same,TGI,KM12 colon,15.3 µM
same,TGI,LOX IMVI melanoma,32.1 µM
same,TGI,M14 melanoma,31.7 µM
same,TGI,MALME-3M melanoma,34.7 µM
same,TGI,MCF7 breast,21.6 µM
same,TGI,MDA-MB-231 breast,25.7 µM
same,TGI,MDA-MB-435,23.2 µM
same,TGI,MDA-N,23.5 µM
same,TGI,MOLT-4 leukemia,8.49 µM
same,TGI,NCI-H226 lung,46.3 µM
same,TGI,NCI-H23 lung,27.9 µM
same,TGI,NCI-H460 lung,31.2 µM
same,TGI,NCI-H522 lung,1.59 µM
same,TGI,NCI/ADR-RES ovarian,10.8 µM
same,TGI,OVCAR-3 ovarian,15.2 µM
same,TGI,OVCAR-4 ovarian,26.2 µM
same,TGI,OVCAR-5 ovarian,31 µM
same,TGI,OVCAR-8 ovarian,19.8 µM
same,TGI,PC-3 prostate,> 32.3 µM
same,TGI,RPMI-8226 leukemia,4.93 µM
same,TGI,RXF 393 renal,21.6 µM
same,TGI,SF-268 CNS,21.8 µM
same,TGI,SF-295 CNS,27.2 µM
same,TGI,SF-539 CNS,6.31 µM
same,TGI,SK-MEL-2 melanoma,37.4 µM
same,TGI,SK-MEL-28 melanoma,30 µM
same,TGI,SK-MEL-5 melanoma,26.4 µM
same,TGI,SK-OV-3 ovarian,> 55.5 µM
same,TGI,SN12C renal,29.1 µM
same,TGI,SNB-19 CNS,31.8 µM
same,TGI,SNB-75 CNS,22 µM
same,TGI,SR leukemia,> 23.8 µM
same,TGI,SW-620 colon,19.9 µM
same,TGI,T-47D breast,37.5 µM
same,TGI,TK-10 renal,33.2 µM
same,TGI,U251 CNS,24.2 µM
same,TGI,UACC-257 melanoma,30.9 µM
same,TGI,UACC-62 melanoma,34 µM
same,TGI,UO-31 renal,5.61 µM

# Reference: PubChem BioAssay (NCI)
